# Results taken from ChEMBL document CHEMBL1201862, “PubChem BioAssay data set” (2004).
#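 Step 1: Grow cells in 96-well plates. Step 2: Expose to compound for 48 hours at 5 concentrations. Step 3: Interpolate endpoints linearly; if unreached, use highest concentration. GI50 marks 50% less growth.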 The source made the active and inactive calls. Rule as the data show it: active = GI50 up to about 1.1 µM and inactive = higher.
# Assays:
# Test in all cases: growth of human tumour cells (NCI), 48 h
# UACC-257 = test system: UACC-257
# HOP-92 = test system: HOP-92
# COLO 205 = test system: COLO 205
# OVCAR-5 = test system: OVCAR-5
# IGROV-1 = test system: IGROV-1
# A498 = test system: A498
# NCI-H23 = test system: NCI-H23
# 786-0 = test system: 786-0
# RXF 393 = test system: RXF 393
# SNB-19 = test system: SNB-19
# KM12 = test system: KM12
# NCI/ADR-RES = test system: NCI/ADR-RES
# Hs-578T = test system: Hs-578T
# SN12C = test system: SN12C
# A549 = test system: A549
# ACHN = test system: ACHN
Structure (SMILES),GI50 (UACC-257),GI50 (HOP-92),GI50 (COLO 205),GI50 (OVCAR-5),GI50 (IGROV-1),GI50 (A498),GI50 (NCI-H23),GI50 (786-0),GI50 (RXF 393),GI50 (SNB-19),GI50 (KM12),GI50 (NCI/ADR-RES),GI50 (Hs-578T),GI50 (SN12C),GI50 (A549),GI50 (ACHN)
COc1ccc(-n2c(N)c(C#N)[nH]c2=O)cc1,> 10 µM (inactive),> 10 µM (inactive),> 10 µM (inactive),3.5 µM (inactive),> 10 µM (inactive),> 10 µM (inactive),> 10 µM (inactive),> 10 µM (inactive),> 10 µM (inactive),> 10 µM (inactive),> 10 µM (inactive),> 10 µM (inactive),> 10 µM (inactive),> 10 µM (inactive),> 10 µM (inactive),> 10 µM (inactive)
Cc1cn(CC2=NCCN2)c(=O)[nH]c1=O,> 100 µM (inactive),> 100 µM (inactive),> 100 µM (inactive),> 100 µM (inactive),> 100 µM (inactive),> 100 µM (inactive),> 100 µM (inactive),> 100 µM (inactive),> 100 µM (inactive),> 100 µM (inactive),> 100 µM (inactive),> 100 µM (inactive),> 100 µM (inactive),> 100 µM (inactive),> 100 µM (inactive),> 100 µM (inactive)
CCOC(=O)C1=C(C)N(Cc2ccc(Cl)cc2Cl)C2(O)C=CC(=O)C3C(=O)N(c4ccccc4)C(=O)C132 (stereo not drawn),2.2 µM (inactive),1.78 µM (inactive),1.7 µM (inactive),3.17 µM (inactive),1.78 µM (inactive),4.57 µM (inactive),1.63 µM (inactive),3.24 µM (inactive),1.32 µM (inactive),1.88 µM (inactive),1.71 µM (inactive),2.29 µM (inactive),3.37 µM (inactive),1.91 µM (inactive),2.11 µM (inactive),1.71 µM (inactive)
Cc1cn(C2CC(O)C(Cn3nncc3Cn3ccc(=O)[nH]c3=O)O2)c(=O)[nH]c1=O (stereo not drawn),> 100 µM (inactive),> 100 µM (inactive),> 100 µM (inactive),> 100 µM (inactive),> 100 µM (inactive),> 100 µM (inactive),> 100 µM (inactive),> 100 µM (inactive),> 100 µM (inactive),> 100 µM (inactive),> 100 µM (inactive),> 100 µM (inactive),> 100 µM (inactive),> 100 µM (inactive),> 100 µM (inactive),> 100 µM (inactive)
CNc1ccc(Cl)cc1C(=O)N1CCC[C@H]1CO,> 100 µM (inactive),> 58.6 µM (inactive),> 100 µM (inactive),> 100 µM (inactive),> 84.7 µM (inactive),> 100 µM (inactive),> 100 µM (inactive),> 100 µM (inactive),> 100 µM (inactive),> 100 µM (inactive),> 100 µM (inactive),> 100 µM (inactive),> 100 µM (inactive),> 100 µM (inactive),> 100 µM (inactive),> 100 µM (inactive)
CCOC(=O)c1c(C)n(-c2ccc(C)cc2)c2c1cc(O)c1[nH]c3c(c12)CCCC3,21.2 µM (inactive),2.92 µM (inactive),25.6 µM (inactive),23.5 µM (inactive),13.8 µM (inactive),13.9 µM (inactive),20.3 µM (inactive),16.9 µM (inactive),12 µM (inactive),19.4 µM (inactive),16.7 µM (inactive),39.8 µM (inactive),< 0.01 µM (active),27.5 µM (inactive),18.8 µM (inactive),22.1 µM (inactive)
Oc1cccc2ccc(Br)nc12,> 100 µM (inactive),> 100 µM (inactive),> 100 µM (inactive),> 100 µM (inactive),> 100 µM (inactive),> 100 µM (inactive),> 100 µM (inactive),> 100 µM (inactive),> 100 µM (inactive),> 100 µM (inactive),> 100 µM (inactive),> 100 µM (inactive),> 100 µM (inactive),> 100 µM (inactive),> 100 µM (inactive),> 100 µM (inactive)
O/N=N/c1ccccn1.OCC1OC2OC3C(CO)OC(OC4C(CO)OC(OC5C(CO)OC(OC6C(CO)OC(OC7C(CO)OC(OC1C(O)C2O)C(O)C7O)C(O)C6O)C(O)C5O)C(O)C4O)C(O)C3O (stereo not drawn),71.1 µM (inactive),> 100 µM (inactive),> 100 µM (inactive),> 100 µM (inactive),> 100 µM (inactive),> 100 µM (inactive),> 100 µM (inactive),> 100 µM (inactive),> 100 µM (inactive),63.7 µM (inactive),82.4 µM (inactive),31.9 µM (inactive),> 100 µM (inactive),> 100 µM (inactive),> 100 µM (inactive),> 100 µM (inactive)
